Source: patent EP1935887A1, “Heterocyclic substituted carbonyl derivatives and their use as dopamine D3 receptor ligands” (Aventis Pharmaceuticals Inc., priority 2001, dated 2002)

Target: T1, Cloned Human Dopamine D3 Receptors (Homo sapiens, UniProt P35462)
T1 construct: expressed in transfected cells; membrane homogenate
Test: [N-Methyl-3H]Spiroperidol binding to cloned human dopamine D3 receptors
Conditions: Table 2; unit inferred; read-out: d3Ki
Procedure, shortened: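 [N-methyl-3H]spiroperidol binding is run in Tris buffer, pH 7.7. Receptor source is membranes of a stably transfected, high-expressing CHO clone carrying the human D3 gene, kept at -80°C in 10% DMSO.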

T1 sequence (P35462 whole entry): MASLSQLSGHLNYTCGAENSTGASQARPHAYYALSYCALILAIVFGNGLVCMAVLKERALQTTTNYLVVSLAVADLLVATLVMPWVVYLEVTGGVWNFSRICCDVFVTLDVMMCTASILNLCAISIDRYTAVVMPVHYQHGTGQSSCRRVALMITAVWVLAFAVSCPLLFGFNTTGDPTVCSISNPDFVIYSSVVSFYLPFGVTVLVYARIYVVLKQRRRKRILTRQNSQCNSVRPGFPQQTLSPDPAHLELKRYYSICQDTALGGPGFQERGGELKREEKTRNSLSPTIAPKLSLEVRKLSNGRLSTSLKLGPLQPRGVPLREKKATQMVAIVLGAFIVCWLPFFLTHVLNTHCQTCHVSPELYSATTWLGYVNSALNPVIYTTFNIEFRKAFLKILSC

SMILES	Ki [nM]
O=C(NCc1cccc2ccccc12)[C@@H]1C[C@H]1CN1CCN(c2csc3cc(C(F)(F)F)ccc23)CC1 [compound 826075]	55.6
C[C@H]1CC[C@H](NC(=O)[C@@H]2C[C@H]2CN2CCN(c3cccc4ccccc34)CC2)CC1 [compound 817099]	1.1
CCC1CCC(NC(=O)C2CC2CN2CCN(c3ncc(C(F)(F)F)cc3Cl)CC2)CC1 (stereo not drawn) [817480A]	5.33
O=C(NCCc1ccccn1)[C@@H]1C[C@H]1CN1CCN(c2csc3cc(C(F)(F)F)ccc23)CC1 [compound 826080]	14.8
C[C@H]1CC[C@H](NC(=O)[C@@H]2C[C@H]2CN2CCN(c3csc4cc(C(F)(F)F)ccc34)CC2)CC1 [(-)-817569]	2.62
O=C(N[C@H]1CC[C@H](C(=O)N2CCCC2)CC1)[C@@H]1C[C@H]1CN1CCN(c2csc3cc(C(F)(F)F)ccc23)CC1 [compound 817047]	2.86
CC1CCCC(NC(=O)CCCN2CCN(c3csc4cc(F)ccc34)CC2CCCc2ccccc2)C1 (stereo not drawn) [compound 827108]	302
O=C(CCCN1CCCN(c2csc3cc(F)ccc23)CC1)N(CCO)C1CCCCC1 [compound 826830]	25.1
CC1CCCC(NC(=O)CCCN2CCCN(c3csc4cc(F)ccc34)CC2)C1 (stereo not drawn) [compound 826827]	39.5
CC1CCCC(NC(=O)CCCN2CCN(c3csc4cc(F)ccc34)CC2Cc2ccccc2)C1 (stereo not drawn) [compound 827088]	284
CC1C(CN2CCN(c3csc4cc(C(F)(F)F)ccc34)CC2)C1C(=O)NC1CCCCC1 (stereo not drawn) [compound 825860]	130
C[C@H]1CC[C@H](NC(=O)[C@H]2C[C@@H]2CN2CCN(c3csc4cc(C(F)(F)F)ccc34)CC2)CC1 [(+)-816589]	1070
CN(C(=O)CCCCN1CCN(c2csc3cc(F)ccc23)CC1)c1ccccc1F [compound 822139]	21.2
O=C(NC1CCCCC1)[C@@H]1C[C@H]1CN1CCN(c2csc3cc(C(F)(F)F)ccc23)CC1 [compound 826076]	15
O=C(NC1CCCC1)[C@@H]1C[C@H]1CN1CCN(c2csc3cc(C(F)(F)F)ccc23)CC1 [compound 826658]	17
Cc1ccccc1N1CCN(C[C@@H]2C[C@H]2C(=O)N[C@H]2CC[C@H](C)CC2)CC1 [817478A]	1.99
CC1CCC(NC(=O)C2CC2CN2CCCN(c3cnccn3)CC2)CC1 (stereo not drawn) [compound 817567]	80.6
Cc1cccc(CNC(=O)[C@@H]2C[C@H]2CN2CCN(c3csc4cc(C(F)(F)F)ccc34)CC2)c1 [compound 826072]	62.6
O=C(NCc1cccs1)[C@@H]1C[C@H]1CN1CCN(c2csc3cc(C(F)(F)F)ccc23)CC1 [compound 826070]	12.6
O=C(CCCCN1CCN(c2csc3cc(F)ccc23)CC1)Nc1ccccc1F [compound 822135]	3.6
CC[C@H]1CC[C@H](NC(=O)[C@@H]2C[C@H]2CN2CCN(c3cc(C)ccc3C)CC2)CC1 [817102A]	7.57
CN(C(=O)CCCN1CCN(c2csc3cc(F)ccc23)CC1CCCc1ccccc1)C1CCCCC1 (stereo not drawn) [compound 827109]	78.6
C[C@]1(O)CC[C@H](NC(=O)[C@@H]2C[C@H]2CN2CCN(c3csc4cc(C(F)(F)F)ccc34)CC2)CC1 [compound 817050]	2.15
C[C@@]1(C(=O)NCc2nc3ccccc3[nH]2)C[C@H]1CN1CCN(c2csc3cc(C(F)(F)F)ccc23)CC1 [compound 825887]	90.4
CCN(C(=O)CCCN1CCN(c2csc3cc(F)ccc23)CC1Cc1ccccc1)C1CCCCC1 (stereo not drawn) [compound 827090]	346
O=C(CCCCN1CCN(c2csc3cc(F)ccc23)CC1)Nc1cccc(Oc2ccccc2)c1 [compound 822137]	36

Same assay, conditions: Table 2 part the 10th table; read-out: d3Ki

SMILES	Ki [nM]
O=C([C@@H]1C[C@H]1CN1CCN(c2csc3cc(C(F)(F)F)ccc23)CC1)N1CCC[C@H]1CO [compound 826920]	67.6
N#CC1(c2ccccc2)CCN(C(=O)[C@@H]2C[C@H]2CN2CCCN(c3csc4cc(C(F)(F)F)ccc34)CC2)CC1 [compound 826689]	674
CC1CCCN(C(=O)CCCN2CCCN(c3csc4cc(F)ccc34)CC2)C1 (stereo not drawn) [compound 826835]	2.12
O=C([C@@H]1C[C@H]1CN1CCCN(c2csc3cc(C(F)(F)F)ccc23)CC1)N1CCC(O)CC1 [compound 826686]	26
CC1(C)CC2CC(C)(CN2C(=O)[C@@H]2C[C@H]2CN2CCN(c3csc4cc(C(F)(F)F)ccc34)CC2)C1 (stereo partly drawn) [compound 826896]	89.5
O=C([C@@H]1C[C@H]1CN1CCCN(c2csc3cc(C(F)(F)F)ccc23)CC1)N1CCC(Cc2ccccc2)CC1 [compound 826688]	217
CC1CCCN1C(=O)CCCN1CCN(c2csc3cc(F)ccc23)CC1Cc1ccccc1 (stereo not drawn) [compound 827103]	81.7
CC1CCCCN1C(=O)CCCN1CCN(c2csc3cc(F)ccc23)CC1Cc1ccccc1 (stereo not drawn) [compound 827094]	34.6
O=C([C@@H]1C[C@H]1CN1CCN(c2csc3cc(C(F)(F)F)ccc23)CC1)N1CCC(O)C1 (stereo partly drawn) [compound 826914]	101
NC(=O)C1CCN(C(=O)[C@@H]2C[C@H]2CN2CCCN(c3csc4cc(C(F)(F)F)ccc34)CC2)CC1 [compound 826687]	132
O=C([C@@H]1C[C@H]1CN1CCN(c2csc3cc(C(F)(F)F)ccc23)CC1)N1CCCC(O)C1 (stereo partly drawn) [compound 826902]	13.1
O=C([C@@H]1C[C@H]1CN1CCN(c2csc3cc(C(F)(F)F)ccc23)CC1)N1CCCCC1 [compound 826081]	18.6
CC1CCCCN1C(=O)CCCN1CCCN(c2csc3cc(F)ccc23)CC1 (stereo not drawn) [compound 826833]	0.872
O=C(CCCN1CCN(c2csc3cc(C(F)(F)F)ccc23)CC1Cc1ccccc1)N1CCC(O)CC1 (stereo not drawn) [compound 827063]	373
CN(C)[C@H]1CCN(C(=O)[C@@H]2C[C@H]2CN2CCN(c3csc4cc(C(F)(F)F)ccc34)CC2)C1 [compound 826926]	86.5

Same assay, conditions: read-out: D3 Ki

SMILES	Ki [nM]
COc1ccc2c(c1)c(N1CCN(C[C@@H]3C[C@H]3C(=O)NCCCN3CCN(C)CC3)CC1)nn2C [compound 833121]	26.5
COc1ccc2c(c1)c(N1CCN(C[C@@H]3C[C@H]3C(=O)N3CCC(CCN4CCCC4)CC3)CC1)nn2C [compound 833628]	95.8
Cn1nc(C2CCN(C[C@@H]3C[C@H]3C(=O)NCCCn3ccnc3)CC2)c2cccc(C(F)(F)F)c21 [compound 832654, 2R-[4-(1-Methyl-7-trifluoromethyl-1 H-indazol-3-yl)-piperidin-1-ylmethyl]-1 R-cycloproanecarboxylic acid (3-imidazol-1-yl-propyl)-amide]	4.72
O=C(NC1CCN(CC2CC2)CC1)[C@@H]1C[C@H]1CN1CCN(c2csc3cc(C(F)(F)F)ccc23)CC1 [compound 832734]	9.85
C[C@H]1CC[C@H](NC(=O)[C@@H]2C[C@H]2CN2CCC(c3cc4ccccc4s3)CC2)CC1 (relative stereo) [compound 831148, 2R-(4-Benzo[b]thiophen-2-yl-piperidin-1-ylmethyl)-1R-cyclopranecarboxylic acid (trans-4-methyl-cyclohexyl)-amide]	0.454
O=C(NC1CCN(Cc2ccc(F)cc2)CC1)[C@@H]1C[C@H]1CN1CCN(c2csc3cc(C(F)(F)F)ccc23)CC1 [compound 832738]	3.26
CC1CCC(NC(=O)C2CC2CN2CCC(c3noc4c(C(F)(F)F)cccc34)CC2)CC1 (stereo not drawn) [compound 832203]	4.76
O=C(NC1CCN(Cc2ccc(F)c(F)c2)CC1)[C@@H]1C[C@H]1CN1CCN(c2nn(-c3ccc(OC(F)(F)F)cc3)c3ccsc23)CC1 [A002437083]	11
O=C([C@@H]1C[C@H]1CN1CCC(c2nn(CC(F)(F)F)c3ccsc23)CC1)N1CCC(Cn2ccnc2)CC1 [A002328970]	36.2
O=C(NCCCn1ccnc1)[C@@H]1C[C@H]1CN1CCN(c2nc3cccc4c3n2CCC4)CC1 [A002437350]	16.2

Same assay, conditions: read-out: d3Ki

SMILES	Ki [nM]
Cc1cccc(N2CCN(C[C@@H]3C[C@H]3C(=O)N[C@H]3CC[C@H](C)CC3)CC2)c1 [compound 827180]	2.47
CC[C@H]1CC[C@H](NC(=O)[C@@H]2C[C@H]2CN2CCN(c3csc4cc(F)ccc34)CC2)CC1 [compound 826667]	2.5
O=C(NCc1ccccn1)[C@@H]1CCC[C@H]1N1CCN(c2csc3cc(F)ccc23)CC1 [compound 825825]	152
O=C([C@@H]1C[C@H]1CN1CCN(c2csc3cc(C(F)(F)F)ccc23)CC1)N(CCO)C1CCCCC1 [compound 826895]	48.8
O=C(NCc1nc2ccccc2[nH]1)[C@@H]1CCCC[C@@H]1CN1CCN(c2csc3cc(C(F)(F)F)ccc23)CC1 [compound 826102]	210
CC1(C)C2CCC1(C)C(NC(=O)[C@@H]1C[C@H]1CN1CCN(c3csc4cc(C(F)(F)F)ccc34)CC1)C2 (stereo partly drawn) [compound 826890]	38
CC[C@H]1CC[C@H](NC(=O)[C@@H]2C[C@H]2CN2CCN(c3cc(C)ccc3C)CC2)CC1 [compound 817570]	6.24
C[C@H]1CC[C@H](NC(=O)[C@@H]2C[C@H]2CN2CCN(c3csc4cc(F)ccc34)CC2)CC1 [compound 826665]	1.9
C[C@H]1CC[C@H](NC(=O)[C@@H]2C[C@H]2CN2CCN(c3ccc(C(F)(F)F)cn3)CC2)CC1 [compound 827182]	73
CC[C@H]1CC[C@H](NC(=O)[C@@H]2C[C@H]2CN2CCN(c3ccc(C)cc3C)CC2)CC1 [compound 817571]	2.85
Cc1ccc(N2CCN(C[C@@H]3C[C@H]3C(=O)N[C@H]3CC[C@H](C)CC3)CC2)cc1 [compound 827174]	8.7
CC[C@H]1CC[C@H](NC(=O)[C@@H]2C[C@H]2CN2CCN(c3ccc(C(C)=O)cc3)CC2)CC1 [compound 827245]	43
C[C@H]1CC[C@H](NC(=O)[C@@H]2C[C@H]2CN2CCCN(c3csc4cc(F)ccc34)CC2)CC1 [compound 826864]	2.16
CC[C@H]1CC[C@H](NC(=O)[C@@H]2C[C@H]2CN2CCN(c3ccc(C)cc3)CC2)CC1 [compound 827213]	11.1
CC[C@H]1CC[C@H](NC(=O)[C@@H]2C[C@H]2CN2CCN(c3ccccc3OC)CC2)CC1 [compound 827218]	1.22
